Laboratory results as given in PubChem BioAssay (NCI).
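Cells were grown in 96-well plates and exposed to each compound for 48 hours at five concentrations; endpoints were interpolated linearly between bracketing concentrations, or set to the highest concentration if not reached. The concentration for full growth arrest is given as TGI.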

What was measured:
Assay in all cases: NCI-60 cell line screen, 48 h
786-0 renal = test system: 786-0 renal
A498 renal = test system: A498 renal
A549 NSCLC = test system: A549 NSCLC
ACHN renal = test system: ACHN renal
BT-549 breast = test system: BT-549 breast
CAKI-1 renal = test system: CAKI-1 renal
CCRF-CEM leukemia = test system: CCRF-CEM leukemia
COLO 205 colon = test system: COLO 205 colon
DU-145 prostate = test system: DU-145 prostate
EKVX NSCLC = test system: EKVX NSCLC
HCC-2998 colon = test system: HCC-2998 colon
HCT-116 colon = test system: HCT-116 colon
HCT-15 colon = test system: HCT-15 colon
HL-60(TB) leukemia = test system: HL-60(TB) leukemia
HOP-62 NSCLC = test system: HOP-62 NSCLC
HOP-92 NSCLC = test system: HOP-92 NSCLC
HS 578T breast = test system: HS 578T breast
HT29 colon = test system: HT29 colon
IGROV1 ovarian = test system: IGROV1 ovarian
K-562 leukemia = test system: K-562 leukemia
KM12 colon = test system: KM12 colon
LOX IMVI melanoma = test system: LOX IMVI melanoma
M14 melanoma = test system: M14 melanoma
MALME-3M melanoma = test system: MALME-3M melanoma
MCF7 breast = test system: MCF7 breast
MDA-MB-231 breast = test system: MDA-MB-231 breast
MDA-MB-435 = test system: MDA-MB-435
MDA-N = test system: MDA-N
MOLT-4 leukemia = test system: MOLT-4 leukemia
NCI-H226 lung = test system: NCI-H226 lung
NCI-H23 lung = test system: NCI-H23 lung
NCI-H460 lung = test system: NCI-H460 lung
NCI-H522 lung = test system: NCI-H522 lung
NCI/ADR-RES ovarian = test system: NCI/ADR-RES ovarian
OVCAR-3 ovarian = test system: OVCAR-3 ovarian
OVCAR-4 ovarian = test system: OVCAR-4 ovarian
OVCAR-5 ovarian = test system: OVCAR-5 ovarian
OVCAR-8 ovarian = test system: OVCAR-8 ovarian
PC-3 prostate = test system: PC-3 prostate
RPMI-8226 leukemia = test system: RPMI-8226 leukemia
RXF 393 renal = test system: RXF 393 renal
SF-268 CNS = test system: SF-268 CNS
SF-295 CNS = test system: SF-295 CNS
SF-539 CNS = test system: SF-539 CNS
SK-MEL-2 melanoma = test system: SK-MEL-2 melanoma
SK-MEL-28 melanoma = test system: SK-MEL-28 melanoma
SK-MEL-5 melanoma = test system: SK-MEL-5 melanoma
SK-OV-3 ovarian = test system: SK-OV-3 ovarian
SN12C renal = test system: SN12C renal
SNB-19 CNS = test system: SNB-19 CNS
SNB-75 CNS = test system: SNB-75 CNS
SR leukemia = test system: SR leukemia
SW-620 colon = test system: SW-620 colon
T-47D breast = test system: T-47D breast
TK-10 renal = test system: TK-10 renal
U251 CNS = test system: U251 CNS
UACC-257 melanoma = test system: UACC-257 melanoma
UACC-62 melanoma = test system: UACC-62 melanoma
UO-31 renal = test system: UO-31 renal

Question: What does the source list for N#CC12CC3=C(N=C1NC1=C(CCc4ccccc41)C2)c1ccccc1CC3 (stereo not drawn)?
Answer: TGI (786-0 renal): 43.8 µM; TGI (A498 renal): 7.97 µM; TGI (A549 NSCLC): > 100 µM; TGI (ACHN renal): > 100 µM; TGI (BT-549 breast): 65.3 µM; TGI (CAKI-1 renal): 77.2 µM; TGI (CCRF-CEM leukemia): 3.38 µM; TGI (COLO 205 colon): 5.55 µM; TGI (DU-145 prostate): > 85.1 µM; TGI (EKVX NSCLC): > 100 µM; TGI (HCC-2998 colon): 4.35 µM; TGI (HCT-116 colon): 21.7 µM; TGI (HCT-15 colon): 51 µM; TGI (HL-60(TB) leukemia): 1.15 µM; TGI (HOP-62 NSCLC): 53 µM; TGI (HOP-92 NSCLC): 41.4 µM; TGI (HS 578T breast): > 34.5 µM; TGI (HT29 colon): 6.52 µM; TGI (IGROV1 ovarian): > 40.3 µM; TGI (K-562 leukemia): 1.36 µM; TGI (KM12 colon): 20.4 µM; TGI (LOX IMVI melanoma): 13.9 µM; TGI (M14 melanoma): 17.6 µM; TGI (MALME-3M melanoma): 37.1 µM; TGI (MCF7 breast): > 38.3 µM; TGI (MDA-MB-231 breast): > 57.5 µM; TGI (MDA-MB-435): 0.923 µM; TGI (MDA-N): 0.809 µM; TGI (MOLT-4 leukemia): 7 µM; TGI (NCI-H226 lung): 29.7 µM; TGI (NCI-H23 lung): 39.2 µM; TGI (NCI-H460 lung): > 100 µM; TGI (NCI-H522 lung): 6.47 µM; TGI (NCI/ADR-RES ovarian): 29.5 µM; TGI (OVCAR-3 ovarian): 8.13 µM; TGI (OVCAR-4 ovarian): > 78.6 µM; TGI (OVCAR-5 ovarian): > 100 µM; TGI (OVCAR-8 ovarian): 15.7 µM; TGI (PC-3 prostate): > 54.5 µM; TGI (RPMI-8226 leukemia): 4.15 µM; TGI (RXF 393 renal): > 100 µM; TGI (SF-268 CNS): > 86.4 µM; TGI (SF-295 CNS): 12 µM; TGI (SF-539 CNS): 7.22 µM; TGI (SK-MEL-2 melanoma): 23.6 µM; TGI (SK-MEL-28 melanoma): 44.3 µM; TGI (SK-MEL-5 melanoma): > 35.5 µM; TGI (SK-OV-3 ovarian): 27.6 µM; TGI (SN12C renal): > 81.9 µM; TGI (SNB-19 CNS): 73.5 µM; TGI (SNB-75 CNS): 11 µM; TGI (SR leukemia): 0.694 µM; TGI (SW-620 colon): > 42.4 µM; TGI (T-47D breast): > 96 µM; TGI (TK-10 renal): 65.8 µM; TGI (U251 CNS): 17.1 µM; TGI (UACC-257 melanoma): > 84.4 µM; TGI (UACC-62 melanoma): 42.6 µM; TGI (UO-31 renal): 35.1 µM

Question: For O=c1ssc2c1Nc1c(ssc1=O)S2, which TGI (786-0 renal) is on record?
Answer: 14.5 µM

Question: What about the TGI (A498 renal) of the same molecule?
Answer: 24.7 µM

Question: What about the TGI (A549 NSCLC) of the same molecule?
Answer: 41 µM

Question: And the TGI (ACHN renal)?
Answer: 30.2 µM

Question: And the TGI (BT-549 breast)?
Answer: 52.5 µM

Question: And the TGI (CAKI-1 renal)?
Answer: 33.3 µM

Question: What about the TGI (CCRF-CEM leukemia) of the same molecule?
Answer: 6.8 µM

Question: And the TGI (COLO 205 colon)?
Answer: 36.4 µM

Question: What about the TGI (DU-145 prostate) of the same molecule?
Answer: 26.2 µM

Question: And the TGI (EKVX NSCLC)?
Answer: 30 µM

Question: What about the TGI (HCC-2998 colon) of the same molecule?
Answer: 29.4 µM

Question: What about the TGI (HCT-116 colon) of the same molecule?
Answer: 31.2 µM

Question: What about the TGI (HCT-15 colon) of the same molecule?
Answer: 41.3 µM

Question: And the TGI (HL-60(TB) leukemia)?
Answer: 15.5 µM

Question: And the TGI (HOP-62 NSCLC)?
Answer: 36.4 µM

Question: What about the TGI (HOP-92 NSCLC) of the same molecule?
Answer: 28.7 µM

Question: What about the TGI (HS 578T breast) of the same molecule?
Answer: > 100 µM

Question: And the TGI (HT29 colon)?
Answer: 73.8 µM

Question: What about the TGI (IGROV1 ovarian) of the same molecule?
Answer: 26.4 µM

Question: And the TGI (K-562 leukemia)?
Answer: 25.2 µM

Question: And the TGI (KM12 colon)?
Answer: 28.6 µM

Question: What about the TGI (LOX IMVI melanoma) of the same molecule?
Answer: 24.3 µM

Question: And the TGI (M14 melanoma)?
Answer: 27.2 µM

Question: And the TGI (MALME-3M melanoma)?
Answer: 22.4 µM

Question: What about the TGI (MCF7 breast) of the same molecule?
Answer: 39.2 µM

Question: And the TGI (MDA-MB-231 breast)?
Answer: 57.3 µM

Question: And the TGI (MDA-MB-435)?
Answer: 33.5 µM

Question: And the TGI (MDA-N)?
Answer: 31.9 µM

Question: What about the TGI (MOLT-4 leukemia) of the same molecule?
Answer: 28.4 µM

Question: What about the TGI (NCI-H226 lung) of the same molecule?
Answer: 46.5 µM

Question: What about the TGI (NCI-H23 lung) of the same molecule?
Answer: 35.3 µM

Question: And the TGI (NCI-H460 lung)?
Answer: 36.4 µM

Question: And the TGI (NCI-H522 lung)?
Answer: 37.4 µM

Question: And the TGI (NCI/ADR-RES ovarian)?
Answer: 37.4 µM

Question: What about the TGI (OVCAR-3 ovarian) of the same molecule?
Answer: 32.4 µM

Question: What about the TGI (OVCAR-4 ovarian) of the same molecule?
Answer: 28.2 µM

Question: And the TGI (OVCAR-5 ovarian)?
Answer: 32.4 µM

Question: And the TGI (OVCAR-8 ovarian)?
Answer: 28.6 µM

Question: And the TGI (PC-3 prostate)?
Answer: 25.5 µM

Question: And the TGI (RPMI-8226 leukemia)?
Answer: 21.1 µM

Question: And the TGI (RXF 393 renal)?
Answer: 17.4 µM

Question: And the TGI (SF-268 CNS)?
Answer: 33.5 µM

Question: And the TGI (SF-295 CNS)?
Answer: 74.7 µM

Question: What about the TGI (SF-539 CNS) of the same molecule?
Answer: 21.5 µM

Question: What about the TGI (SK-MEL-2 melanoma) of the same molecule?
Answer: 32.1 µM

Question: What about the TGI (SK-MEL-28 melanoma) of the same molecule?
Answer: 34.2 µM

Question: What about the TGI (SK-MEL-5 melanoma) of the same molecule?
Answer: 29.4 µM

Question: What about the TGI (SK-OV-3 ovarian) of the same molecule?
Answer: 36.3 µM

Question: And the TGI (SN12C renal)?
Answer: 28.1 µM

Question: And the TGI (SNB-19 CNS)?
Answer: 34.7 µM

Question: What about the TGI (SNB-75 CNS) of the same molecule?
Answer: 30.2 µM

Question: And the TGI (SR leukemia)?
Answer: 5.49 µM

Question: And the TGI (SW-620 colon)?
Answer: 31.1 µM

Question: What about the TGI (T-47D breast) of the same molecule?
Answer: 26.2 µM

Question: What about the TGI (TK-10 renal) of the same molecule?
Answer: 29.5 µM

Question: And the TGI (U251 CNS)?
Answer: 33.3 µM

Question: What about the TGI (UACC-257 melanoma) of the same molecule?
Answer: 28.3 µM

Question: And the TGI (UACC-62 melanoma)?
Answer: 27.3 µM

Question: What about the TGI (UO-31 renal) of the same molecule?
Answer: 24.4 µM
